From PubChem BioAssay (NCI)
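Results reflect a 48-hour exposure of cells in 96-well plates to compound at five concentrations. TGI: concentration producing complete growth inhibition.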

Tests used:
Assay in all cases: DTP human tumour cell line panel, 48 h
IGROV1 ovarian = system: IGROV1 ovarian
M14 melanoma = system: M14 melanoma
MDA-MB-435 = system: MDA-MB-435
MDA-N = system: MDA-N
NCI-H226 lung = system: NCI-H226 lung
NCI/ADR-RES ovarian = system: NCI/ADR-RES ovarian
SK-MEL-2 melanoma = system: SK-MEL-2 melanoma
SK-MEL-5 melanoma = system: SK-MEL-5 melanoma
SNB-75 CNS = system: SNB-75 CNS
SW-620 colon = system: SW-620 colon

| SMILES | TGI (IGROV1 ovarian) [µM] | TGI (M14 melanoma) [µM] | TGI (MDA-MB-435) [µM] | TGI (MDA-N) [µM] | TGI (NCI-H226 lung) [µM] | TGI (NCI/ADR-RES ovarian) [µM] | TGI (SK-MEL-2 melanoma) [µM] | TGI (SK-MEL-5 melanoma) [µM] | TGI (SNB-75 CNS) [µM] | TGI (SW-620 colon) [µM] |
| --- | --- | --- | --- | --- | --- | --- | --- | --- | --- | --- |
| CC(C)(C)C#CI1OC(=O)c2ccccc21 | 12 | 15.3 | 18.4 | 23.4 | 15.2 | > 45.4 | 27 | 15.5 | 16 | 10.3 |
| O=C1CCCC2=C1CC1=C(CCCC1=O)N2c1ccc(-c2ccccc2)cc1 | > 100 | > 100 | > 100 | > 100 | > 100 | > 100 | > 100 | > 100 | > 67.5 | > 100 |
| Brc1ccc2[nH]cc(-c3csc(-c4c[nH]c5ccc(Br)cc45)n3)c2c1 | 4.6 | 2.87 | 5.79 | 5.95 | 5.1 | 6.29 | 3.81 | 3.14 | 7.27 | 4.42 |
| Cc1cccc2c(N)c3cccc(C(=O)NCC[N+](C)(C)[O-])c3nc12 | > 100 | 55 | 41.5 | 42.7 | 27.8 | > 100 | > 100 | > 100 | 9.47 | > 100 |
| CN(C)CN1C(=O)/C(=N\n2c(-c3ccncc3)n[nH]c2=S)c2ccccc21 | > 100 | 70.4 | 30.2 | 31.8 | > 100 | > 100 | 50.5 | > 100 | > 100 | > 100 |
| COC(=O)[C@@H]1[C@H]2CC[C@]3(C)[C@@H](OC(C)=O)CC[C@H]3[C@@H]2CC[C@H]1C1(C)SCCS1 | > 100 | 44 | 35.3 | 47.3 | 42.3 | 57.1 | 40 | 21.4 | > 100 | > 100 |
| CCOP(=O)(COCCn1nc(Br)c(=O)[nH]c1=O)OCC | > 100 | > 100 | > 100 | > 100 | > 100 | > 100 | > 100 | > 100 | > 100 | > 100 |
| O=C1c2cccnc2C(=O)c2c1nc1ccccc1c2-c1ccc2c3c(nc4ccccc42)C(=O)c2cccnc2-c13 | 1.39 | 4.55 | 5.58 | 8.82 | 7.55 | 5.16 | 14.1 | 1.77 | 8.28 | 4.79 |
